# Data: US12440469B2, “P-gp inducers as protectors against chemotherapy-induced side effects, such as peripheral neuropathy (CIPN) and hair loss” (Syddansk Universitet, priority 2019, dated 2025)
# What was measured:
# [1] = test system: iPSC-derived sensory neurons; test: Vincristine neurotoxicity in iPSC-derived sensory neurons with or without MK-571 or rifampicin; type: cell-based, human
# Excerpt: Sensory neurons were generated from human induced pluripotent stem cells (iPSCs) by implementing the well-established protocol by Chambers et. al. (Nat Biotech 2012). The neuronal differentiation was initiated when iPSCs achieved 70-80% confluency using KSR medium, which contained 82% KnockOut DMEM (Gibco, 10829-018) and 15% KnockOut Serum Replacement (KSR, ThermoFisher, 10828-028), 1% GlutaMAX-I (Gibco, 35050-038), 1% mini-mum essential medium non-essential amino acids (MEM-NEAA, Gibco, 11140-035), 1% P/S and 0.055 mM β-mercaptoethanol (Gibco, 21985023).
# On days 0-5, SMAD signaling was inhibited by adding 0.1 μM LDN-193189 (Selleck, S7507) and 10 μM SB-431542 (Selleck, S1067) to the medium. Medium was changed daily, and N2 medium was added with 25% increments every other day starting on day 4 (100% N2 on day 10). N2 medium consists of 97% Neurobasal medium (Gibco, 21103-049) with 1% N2 Supplement (Gibco, 17502-048), 1% B27 Supplement (Gibco, 17504-044) and 1% P/S. On days 2-10, nociceptor induction was initiated with the addition of the three inhibitors, 3 μM CHIR99021 (Selleck, S1263), 10 μM SU5402 (Selleck, S7667) and 10 μM DAPT (Selleck, S2215).
# For long-term cultivation starting on day 12, cells were washed with PBS÷ and incubated with Accutase for 30 min to obtain a single-cell suspension. After incubation, the culture plates were gently rocked and cellular clumps were mechanically dissociated by pipetting up and down. The cells were filtered through a 40 μm nylon cell strainer (Corning, 431750) and centrifuged (800 rpm, 5 min, RT). Following resuspension of the pellet, iPSC-SNs were seeded as single cells on PLO/LAM/FN-coated culture plates at a density of 150,000 viable cells/cm^2. […]
# Cells were treated with vincristine from 0.001-1 μM for 24 hours and immunolabeled with peripherin antibody. Quantification of network was done using ImageJ and MIPAR. […]
# [2] = test system: paclitaxel treated patients with breast or ovarian cancer; test: Paclitaxel dose modification due to peripheral neuropathy in patients using P-gp inhibitors (logistic regression); type: in vivo, human; conditions: for Multivariate analysis Odds-ratio of paclitaxel dose modification due to peripheral neuropathy: adjusted for age, body surface, tumor type, cancer stage, treatment schedule and previous chemotherapy; for Univariate analysis Odds-ratio of paclitaxel dose modification due to peripheral neuropathy: concomitant use with paclitaxel, 503 patients database; for increased risk of dose modification due to peripheral neuropathy: paclitaxel-treated patients, text summary of the multivariate analysis
# Excerpt: Data were log-transformed to ensure normality of data.
# To assess if P-gp inhibition leads to increased risk of peripheral neuropathy we used a previously described database of 503 paclitaxel treated patients with breast or ovarian cancer (Sanchez-Barroso L et al. The Oncologist. 2018 Nov. 23). […] P-gp inhibitors were selected based on two literature reviews (see comments under table 1). From these reviews, we identified drugs listed as P-gp inhibitors (drugs classified as inhibitor in either review), and, within these, strong P-gp inhibitors (drugs classified as inhibitor in both reviews).
# The association from univariate and multivariate analysis between paclitaxel dose modification due to peripheral neuropathy and concomitant P-gp inhibitor use is shown in Table 1.
# SH-SY5Y-derived neurons [3] = test: Neurite number and length in differentiated SH-SY5Y cells after paclitaxel with or without valspodar
# Procedure: (§1) SH-SY5Y cells (94030304, Sigma-Aldrich) were kept in DMEM/F:12 (11320074, ThermoFisher) with 15% heat-inactivated fetal bovine serum (hiFBS, F9665 Sigma-Aldrich), 1% penicillin/streptomycin (p/s) and 2 mM glutamine. Cells were split 1:10-1:20 using 0.05% trypsin-EDTA (10779413, Fisher Scientific) at 70-80% confluence.
# (§2) Paclitaxel (T7402, Sigma-Aldrich) was diluted serially in DMSO (D2650, Sigma-Aldrich) and these stock solutions diluted 1:500 to ensure 0.2% DMSO in all samples. […] Valspodar (SML0572, Sigma-Aldrich) were used at a final concentration of 4 μM. Antibody against TUBB3 (MA1-118, ThermoFisher Scientific) was used at 1:1000.
# (§3) Briefly, SH-SY5Y cells below passage 15 were seeded at 5-6×10^3 cells/cm^2 in uncoated 6-well plates (day 0 (D0)) and left overnight in growth media. The next day (D1) differentiation was initiated using DMEM/F:12 media with 2.5% hiFBS, 1% p/s, 2 mM glutamine and 10 μM retinoic acid (RA, R2625 Sigma-Aldrich) and media was replaced at D3 and D5. On D7 cells were split 1:1 using 0.05% trypsin-EDTA to uncoated dishes and on D8 hiFBS content was reduced to 1%. On D10 the cells were split 1:1 to extracellular matrix-coated dishes (E0282, Sigma-Aldrich). On D11 media was replaced with the final differentiation media containing neurobasal media (21103049, ThermoFisher) with 1×B27 supplement (17504044, ThermoFisher), 20 mM KCl (10697623, Fisher Scientific), 1% p/s, 1× Glutamax, 50 ng/ml brain-derived neurotrophic factor (BDNF, CST-3897S, Peprotech), 2 mM dibutyryl cyclic AMP (db-cAMP, D0627 Sigma-Aldrich) and 10 μM RA. Media was replaced on D14 and D17 and cells were tested and confirmed as fully differentiated on D18 and used for downstream applications as outlined below.
# (§4) Both differentiated and undifferentiated SH-SY5Y cells were fixed using 4% paraformaldehyde. Cells were permeabilized using 0.25% Triton X-100 and unspecific binding was blocked using bovine serum albumin (BSA). Primary antibodies were incubated overnight at 4° C. and secondary antibodies were incubated for one hour at room temperature. Nuclei were stained using 1.5 μM DAPI for 5 minutes. Imaging was performed using a Leica DMI4000B microscope. Neurite morphology was assessed using the ImageJ modules CellCounter and Simple Neurite Tracer. To determine number of neurites per cell, CellCounter was used to count the number of cells with 0, 1, 2 . . . n neurites. Neurite length was determined using Simple Neurite Tracer. For both endpoints, at least five images of each condition from three separate differentiations were used. ImageJ analysis was blinded to the person assessing length and number of neurites to ensure no bias. […]
# [4] = test system: sensory neurons derived from induced pluripotent stem cells; test: Paclitaxel damage in iPSC-derived sensory neurons, peripherin immunolabelling; type: cell-based, human; conditions: paclitaxel 24 hours
# Procedure: Cells were treated with paclitaxel for 24 hours and immunolabeled using an antibody for peripherin.
# Cells were pretreated for 48 hours with 25 μM rifampicin prior to addition of paclitaxel treatment.
# P-gp = target: T1, P-gp (Homo sapiens, UniProt P08183); test: Intracellular paclitaxel concentration (LC-MS/MS) in differentiated SH-SY5Y cells under P-gp inhibition; type: cell-based; conditions: 10 μM paclitaxel, 1 hour, P-gp inhibition by 4 μM valspodar, p<0.001
# T1 construct: indicated expression of the efflux transporters P-gp and MRP1 in both SH-SY5Y cells and human dorsal root ganglion; endogenous in cells; host or cells: differentiated SH-SY5Y cells (neurons)
# Procedure: LC-MS/MS method to determine intracellular paclitaxel concentrations Fully differentiated SH-SY5Y cells were exposed to 1-10 μM paclitaxel for 1 hour with and without 1 hour pre-incubation with efflux transporter inhibitors. After this, media was aspirated and cells were lysed using radio immunoprecipitation assay (RIPA) buffer with 4% protease inhibitor for 10 minutes on ice. Cells were collected using a cell scraper, vortexed and sonicated (1 sec×2), centrifuged and the supernatant was stored at −80° C. until LC-MS/MS analysis. […] The LC-MS/MS system consisted of an Ultimate 3000 UHPLC system connected to a TSQ Quantiva Triple Quadropole Mass Spectrometer with heated electrospray ionization (H-ESI) (Thermo Scientific, San Jose, CA). […] Paclitaxel was quantified at the transition from (m/z) 876.18-308.00, and with (m/z) 876.18-591.11 and (m/z) 876.19-531.11 as qualifier traces. […] The limit of detection (LOD) for the method was 1 ng/mL and limit of quantification (LOQ) was 10 ng/mL. Finally, paclitaxel concentrations were adjusted for protein concentration in each well as assessed using a Pierce BCA protein assay kit.
# Cells were treated with paclitaxel with and without concomitant P-gp inhibition by valspodar and intracellular levels were measured 1 hour after treatment.
# SH-SY5Y-derived neurons [5] = test system: SH-SY5Y-derived neurons
# Procedure: as §1, §2, §3, §4
# TRPV1 = TRPV1 expression in iPSC-derived sensory neurons (RT-qPCR); type: cell-based, human; conditions: paclitaxel, dose-dependent
# Procedure: (§5) Induced pluripotent stem cells were differentiated to sensory neurons for 35-40 days as described above. Rifampicin was added 48 hours ahead of paclitaxel to increase expression of efflux transporters. Expression levels was determined using real-time qualitative polymerase chain reaction (RT-qPCR) for TRPV1 and ATF-3.
# ATF-3 = ATF-3 expression in iPSC-derived sensory neurons (RT-qPCR); type: cell-based, human; conditions: paclitaxel, dose-dependent
# Procedure: as §5
# [6] = vincristine 0.001-1 μM, 24 hours
# T1 sequence (P08183 whole entry): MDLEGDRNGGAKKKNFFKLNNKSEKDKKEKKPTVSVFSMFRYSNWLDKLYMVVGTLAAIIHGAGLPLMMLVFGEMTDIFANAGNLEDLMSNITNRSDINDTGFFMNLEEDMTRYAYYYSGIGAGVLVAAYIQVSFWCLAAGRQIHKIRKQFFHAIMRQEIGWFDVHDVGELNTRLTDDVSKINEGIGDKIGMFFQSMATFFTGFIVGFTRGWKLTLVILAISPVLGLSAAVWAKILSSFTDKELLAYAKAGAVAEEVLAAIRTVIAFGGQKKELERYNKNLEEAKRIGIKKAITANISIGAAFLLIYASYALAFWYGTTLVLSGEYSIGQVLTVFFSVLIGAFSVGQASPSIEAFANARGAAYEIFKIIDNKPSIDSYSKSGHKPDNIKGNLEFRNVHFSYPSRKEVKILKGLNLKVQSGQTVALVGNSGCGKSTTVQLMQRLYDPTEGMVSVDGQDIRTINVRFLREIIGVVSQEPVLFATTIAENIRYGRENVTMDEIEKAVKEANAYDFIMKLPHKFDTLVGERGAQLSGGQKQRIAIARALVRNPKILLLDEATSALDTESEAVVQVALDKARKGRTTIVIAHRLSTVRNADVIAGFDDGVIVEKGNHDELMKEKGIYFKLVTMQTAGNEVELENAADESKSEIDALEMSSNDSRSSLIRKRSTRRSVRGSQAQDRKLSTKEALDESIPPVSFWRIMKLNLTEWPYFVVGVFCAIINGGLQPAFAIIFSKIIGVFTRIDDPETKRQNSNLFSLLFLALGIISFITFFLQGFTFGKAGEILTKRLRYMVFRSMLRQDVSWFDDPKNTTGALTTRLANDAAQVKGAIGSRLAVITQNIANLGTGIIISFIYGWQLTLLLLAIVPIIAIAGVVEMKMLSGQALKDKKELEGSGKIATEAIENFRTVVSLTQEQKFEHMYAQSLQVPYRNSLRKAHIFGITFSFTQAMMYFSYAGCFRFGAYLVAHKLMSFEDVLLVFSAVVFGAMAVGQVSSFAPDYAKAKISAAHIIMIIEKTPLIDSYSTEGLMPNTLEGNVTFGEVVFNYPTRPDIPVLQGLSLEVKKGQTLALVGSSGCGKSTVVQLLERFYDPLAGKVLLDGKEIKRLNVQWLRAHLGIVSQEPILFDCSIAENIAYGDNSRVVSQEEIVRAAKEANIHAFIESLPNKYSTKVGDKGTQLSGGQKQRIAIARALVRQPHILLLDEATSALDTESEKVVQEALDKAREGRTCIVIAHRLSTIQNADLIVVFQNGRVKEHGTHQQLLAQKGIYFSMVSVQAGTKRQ
compound,measurement,setting,value
CN(C)C(=O)CCSC(SCCC(=O)O)c1cccc(/C=C/c2ccc3ccc(Cl)cc3n2)c1 (centres unmarked) [MK-571],effect of MRP1 inhibition on vincristine neurotoxicity,"[1]; 4 μM MK-571 one hour ahead of vincristine, low vincristine concentrations",substantially increased neurotoxicity
CC[C@]1(O)C[C@H]2CN(CCc3c([nH]c4ccccc34)[C@@](C(=O)OC)(c3cc4c(cc3OC)N(C=O)[C@H]3[C@@](O)(C(=O)OC)[C@H](OC(C)=O)[C@]5(CC)C=CCN6CC[C@]43[C@@H]65)C2)C1 [vincristine],neurite length,[1]; [6],shortened in a dose-dependent manner
same,number of neurites extending from a cluster of sensory neurons,[1]; [6],dose-dependent decrease
CC(C)c1c(C(=O)Nc2ccccc2)c(-c2ccccc2)c(-c2ccc(F)cc2)n1CC[C@@H](O)C[C@@H](O)CC(=O)O [Atorvastatin],Multivariate analysis Odds-ratio of paclitaxel dose modification due to peripheral neuropathy,[2],7.01
same,Univariate analysis Odds-ratio of paclitaxel dose modification due to peripheral neuropathy,[2],9.41
same,increased risk of dose modification due to peripheral neuropathy,[2],7.0 fold
C/C=C/C[C@@H](C)C(=O)[C@H]1C(=O)N[C@@H](C(C)C)C(=O)N(C)CC(=O)N(C)[C@@H](CC(C)C)C(=O)N[C@@H](C(C)C)C(=O)N(C)[C@@H](CC(C)C)C(=O)N[C@@H](C)C(=O)N[C@H](C)C(=O)N(C)[C@@H](CC(C)C)C(=O)N(C)[C@@H](CC(C)C)C(=O)N(C)[C@@H](C(C)C)C(=O)N1C [valspodar],effect on neuronal morphology without paclitaxel present,SH-SY5Y-derived neurons [3]; 4 μM valspodar alone,did not affect
same,effect on neuronal toxicity of paclitaxel (number and length of neurites),"SH-SY5Y-derived neurons [3]; 4 μM valspodar together with paclitaxel, 24 hours, ANOVA p<0.001",substantially exacerbated
CC(=O)O[C@H]1C(=O)[C@@]2(C)[C@H]([C@H](OC(=O)c3ccccc3)[C@]3(O)C[C@H](OC(=O)[C@H](O)[C@@H](NC(=O)c4ccccc4)c4ccccc4)C(C)=C1C3(C)C)[C@]1(OC(C)=O)CO[C@@H]1C[C@@H]2O [Paclitaxel],damage to sensory neurons,[4],marked damage
same,increase in intracellular accumulation of paclitaxel on inhibition of P-gp,P-gp,> 3 fold
same,neurite length,SH-SY5Y-derived neurons [5],significantly reduced
same,number of neurites,SH-SY5Y-derived neurons [5],significantly reduced
same,TRPV1 expression,TRPV1,substantially increased expression
same,ATF-3 expression,ATF-3,substantially increased expression
CCC(C)(C)C(=O)O[C@H]1C[C@@H](C)C=C2C=C[C@H](C)[C@H](CC[C@@H]3C[C@@H](O)CC(=O)O3)[C@H]21 [Simvastatin],Multivariate analysis Odds-ratio of paclitaxel dose modification due to peripheral neuropathy,[2],0.31
same,Univariate analysis Odds-ratio of paclitaxel dose modification due to peripheral neuropathy,[2],0.60
same,increased risk of dose modification due to peripheral neuropathy,[2],not at increased risk
